Assay: cardiovascular CTA (Siemens Sensation 64) contrast enhancement, generated protocol vs standard biphasic protocol
Format: in vivo, patients
Procedure: It was expected that left and right heart contrast enhancement would be more consistent across subjects using the cardiac protocol generation system/method of the present invention as compared to typical methods of establishing protocol parameters. To evaluate the level and consistency of enhancement, cardiac CE CT data from a pilot study were analyzed. Two anatomic regions of interest (the descending aorta and the right ventricle) were identified in each subject's scan (reconstructed at 60% RR interval) via a semi-automatic segmentation algorithm. For every set of axial slices acquired at a single time point, the mean enhancement within each of the regions was computed, yielding time enhancement curves. The influence of a per-patient, contrast injection protocol having a dilution phase on right heart enhancement during cardiac CTA was also studied. Sufficient enhancement for assessment of the right heart allows for the assessment of right heart pathology. […] Standard Errors in the other groups were: uni-phasic (+/−39 HU)), bi-phasic (+/−39 HU), and fixed dilution phase (+/−28 HU). […] Left Heart Enhancement averaged 325 HU+/−80
A study of 20 patients undergoing cardiovascular CTA (Siemens Sensation 64) using injection protocols generated using the system/method of the present invention (Iopimidol 370) and 19 control subjects with a standard biphasic protocol (Iopimidol 370 contrast volume=scan duration×5 ml/s, followed by a 40 ml saline flush) was made. All values of the time enhancement curves were pooled across subjects, and the two groups were compared via unpaired t-tests. The mean enhancements for the protocols generated by the present invention and the biphasic protocols were 357±69 HU and 323±64 HU, respectively (p=10^−8). The right ventricle mean enhancements were 318±85 HU and 212±96 HU (p=10^−21).

Q: For `C[C@H](O)C(=O)Nc1c(I)c(C(=O)NC(CO)CO)c(I)c(C(=O)NC(CO)CO)c1I` [Iopimidol 370, Iopimidol], which “right ventricle mean enhancement (FIG. 35C)” value (protocols generated by the present invention, 20 patients) is on record?
A: The value was 318±85 HU.

Q: What about the “mean enhancement (descending aorta, FIG. 35B)” value (protocols generated by the present invention, 20 patients, time enhancement curve values pooled across subjects) of the same compound?
A: Its value is 357±69 HU.

Q: And the “mean enhancement (descending aorta, FIG. 35B)” value (standard biphasic protocol (contrast volume = scan duration x 5 ml/s, then 40 ml saline flush), 19 control subjects)?
A: Its value is 323±64 HU.

Q: What about the “right ventricle mean enhancement (FIG. 35C)” value (standard biphasic protocol, 19 control subjects) of the same compound?
A: Its value is 212±96 HU.

From patent publication US10463782B2, “Patient-based parameter generation systems for medical injection procedures” (BAYER HEALTHCARE LLC, priority 2006, dated 2019)
